{"source": "patent US8758823B2", "about": "“Method for obtaining non-water-soluble powders having antimicrobial activity, the powders thus obtained and the antibacterial use thereof” (Poly-Bio, priority 2009, dated 2014)", "origin": "cited, not measured here", "system": "Staphylococcus aureus", "settings": "quaternary ammonium chloride in aqueous solution; AKZO NOBEL guideline formulation", "data": [{"smiles": "CCCCCCCCCC[N+](C)(C)CCCCCCCCCC.[Cl-]", "note": "[ARQUAD 210-50, didecyl dimethyl ammonium chloride]", "values": [{"measurement": "concentration recommended to obtain the same result (reduction greater than 5 Log)", "value": "12 to 16", "unit": "ppm"}]}]}
